# “Also recorded” adds a separate entry of the source. Where two headings read alike, the source gives them in different places.
# Tests used:
# topoisomerase I = biological target: T1, topoisomerase I (Homo sapiens, UniProt P11387); assay: Topoisomerase I inhibition; assay type: biochemical
# T1 sequence (P11387 1-765): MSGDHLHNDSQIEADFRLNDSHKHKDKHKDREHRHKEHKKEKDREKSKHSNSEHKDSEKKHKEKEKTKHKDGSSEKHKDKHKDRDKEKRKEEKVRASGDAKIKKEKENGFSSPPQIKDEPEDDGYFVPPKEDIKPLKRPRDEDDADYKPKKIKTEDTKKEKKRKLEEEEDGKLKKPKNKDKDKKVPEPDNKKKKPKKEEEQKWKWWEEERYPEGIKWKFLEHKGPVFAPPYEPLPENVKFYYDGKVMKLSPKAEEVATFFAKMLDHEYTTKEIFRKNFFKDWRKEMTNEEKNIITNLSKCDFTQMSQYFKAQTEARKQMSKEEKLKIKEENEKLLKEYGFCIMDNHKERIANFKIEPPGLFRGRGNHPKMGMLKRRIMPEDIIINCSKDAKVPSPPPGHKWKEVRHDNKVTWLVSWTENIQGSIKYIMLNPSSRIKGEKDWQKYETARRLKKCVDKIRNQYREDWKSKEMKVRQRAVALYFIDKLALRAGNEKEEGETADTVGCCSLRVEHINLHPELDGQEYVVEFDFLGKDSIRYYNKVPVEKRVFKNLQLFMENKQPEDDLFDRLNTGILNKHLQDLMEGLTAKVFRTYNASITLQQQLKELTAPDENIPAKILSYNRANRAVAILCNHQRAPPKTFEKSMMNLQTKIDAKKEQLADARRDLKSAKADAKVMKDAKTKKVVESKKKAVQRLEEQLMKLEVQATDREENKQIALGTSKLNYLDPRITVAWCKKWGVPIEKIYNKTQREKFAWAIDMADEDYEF
# [1] = in-vitro study of anti-proliferative activity; assay type: cell-based
# [2] = human, in vivo; for time at which peak plasma concentrations (Cmax) were achieved / time of rapid rise of the metabolites in the serum after starting the infusion: iv
# Procedure: (§1) A non-randomized phase I clinical trial was conducted at 4 institutions in the US and Taiwan.
# (§2) Patients were included in this trial if they are over the age of 18, with advanced cancer and the ECOG performance status is 0 or 1. […] Patients were excluded from the study if they have previously received more than 3 regimens of chemotherapy, or if they have received chemotherapy or radiotherapy within 4 weeks of the trial recruitment.
# (§3) Eligible patients were given the pharmaceutical composition of the present invention, comprising a mixture of TLC388HCl and mPEG2000-DSPE in a molar ratio of 1:0.7 to 1:0.9 (known as Lipotecan®). […] The pharmaceutical composition was administered as a 30-min IV infusion, on days 1, 8, and 15 of a 28-day cycle (i.e. 3 IV infusions per 28-day cycle).
# (§4) Serum samples were collected from the patients for pharmacokinetic analysis on day 1, day 8 and day 15 of Cycles 1 and 2, at the following times:
# (§5) Post IV infusion: (Day 1 and 8 of Cycle 1): 33 min; 40 min; 50 min; 1 h; 1 h 30 min; 2 h; 4 h and 8 h. Post IV infusion (Day 15 of Cycle 1 and Day 1, 8, and 15 of Cycle 2): 4 h. Patients were assessed every 8 weeks, after 2 cycles of treatments.
# (§6) During the 2-cycle study period, the patients were examined regularly for the following outcomes: • Side effect/DLT; • The pK profiles of the (S,S) and (S,R) diastereomers of TLC388HCl, its 3 metabolites (TLC-U1, TLC-U2 and Topotecan) on day 1 and day 8 of the treatment cycle; and • Anti-cancer efficacy.
# clinical = conditions: human, in vivo
# Procedure: as §1, §2, §3, §4, §5, §6
smiles,measurement,setting,value
"CC[C@@]1(OC(=O)[C@H](C)O)C(=O)OCc2c1cc1n(c2=O)Cc2cc3c(CN(C)C)c(O)ccc3nc2-1 [TLC-U2, S,S-topotecan lactate]",topoisomerase I inhibition,topoisomerase I,weak topoisomerase I Inhibitors
same,anti-proliferative activity,[1],comparable to that of TLC 388HCl; also recorded: more potent than that of TLC-U1
same,Dose-normalized AUClast,[2],4.05 ± 1.34 nM*h/(mg/m^2)
same,Dose-normalized Cmax,[2],2.84 ± 0.97 nM/(mg/m^2)
same,difference between PK profiles on Day 1 and Day 8,[2],no significant difference
same,dose proportionality of exposure,[2],roughly dose proportional
same,AUC0-t,[2]; 1.5 mg/m2,2.872 (0.882) hr · ng/mL
same,Cmax,[2]; 1.5 mg/m2,2.117 (0.468) ng/mL
same,Tmax,[2]; 1.5 mg/m2,0.505 (0.039) hr
same,t1/2,[2]; 1.5 mg/m2,1.953 (0.698) hr
same,AUC0-t,[2]; 3 mg/m2,5.625 (1.972) hr · ng/mL
same,AUC0-t,[2]; 6 mg/m2,11.599 (1.437) hr · ng/mL
same,AUC0-t,[2]; 9 mg/m2,16.581 (3.976) hr · ng/mL
same,AUC0-t,[2]; 20 mg/m2,29.023 (7.443) hr · ng/mL
same,AUC0-t,[2]; 30 mg/m2,78.761 (50.88) hr · ng/mL
same,AUC0-t,[2]; 35 mg/m2,102.97 (20.18) hr · ng/mL
same,Cmax,[2]; 35 mg/m2,74.800 (42.82) ng/mL
same,Tmax,[2]; 35 mg/m2,0.592 (0.091) hr
same,t1/2,[2]; 35 mg/m2,3.347 (1.219) hr
same,AUC0-t,[2]; 40 mg/m2,72.758 (49.22) hr · ng/mL
same,AUC0-t,[2]; 50 mg/m2,97.314 (38.34) hr · ng/mL
same,AUC0-t,[2]; 60 mg/m2,109.80 (25.72) hr · ng/mL
same,time at which peak plasma concentrations (Cmax) were achieved,[2],within one hour
same,time of rapid rise of the metabolites in the serum after starting the infusion,[2],≤ 15 min
same,AUC0-t,"clinical; 1.5 mg/m2, AUC0-t",3.74 ng·h/mL
same,Cmax,"clinical; 1.5 mg/m2, Cmax",3.34 ng/mL
same,Tmax,"clinical; 1.5 mg/m2, Tmax",37.7 min
same,half-life,"clinical; 1.5 mg/m2, t1/2",138 min
same,AUC0-t,"clinical; 3 mg/m2, AUC0-t",7.91 ng·h/mL
same,Cmax,"clinical; 3 mg/m2, Cmax",5.14 ng/mL
same,Tmax,"clinical; 3 mg/m2, Tmax",28 min
same,half-life,"clinical; 3 mg/m2, t1/2",140 min
same,AUC0-t,"clinical; 6 mg/m2, AUC0-t",11.6 ng·h/mL
same,Cmax,"clinical; 6 mg/m2, Cmax",7.52 ng/mL
same,Tmax,"clinical; 6 mg/m2, Tmax",28 min
same,half-life,"clinical; 6 mg/m2, t1/2",148 min
same,AUC0-t,"clinical; 9 mg/m2, AUC0-t",15.5 ng·h/mL
same,Cmax,"clinical; 9 mg/m2, Cmax",11.5 ng/mL
same,Tmax,"clinical; 9 mg/m2, Tmax",30.2 min
same,half-life,"clinical; 9 mg/m2, t1/2",195 min
same,AUC0-t,clinical; 13.5 mg/m2,29.1 ng·h/mL
same,Cmax,clinical; 13.5 mg/m2,18.1 ng/mL
same,Tmax,clinical; 13.5 mg/m2,22 min
same,half-life,clinical; 13.5 mg/m2,147 min
same,AUC0-t,"clinical; 20 mg/m2, AUC0-t",33.6 ng·h/mL
same,Cmax,"clinical; 20 mg/m2, Cmax",28.6 ng/mL
same,Tmax,"clinical; 20 mg/m2, Tmax",29 min
same,half-life,"clinical; 20 mg/m2, t1/2",149 min
same,AUC0-t,"clinical; 30 mg/m2, AUC0-t",49.5 ng·h/mL
same,Tmax,"clinical; 30 mg/m2, Tmax",25.5 min
same,half-life,"clinical; 30 mg/m2, t1/2",139 min
same,AUC0-t,"clinical; 35 mg/m2, AUC0-t",88.2 ng·h/mL
same,Cmax,"clinical; 35 mg/m2, Cmax",48.5 ng/mL
same,Tmax,"clinical; 35 mg/m2, Tmax",36.5 min
same,half-life,"clinical; 35 mg/m2, t1/2",188 min
same,AUC0-t,"clinical; 40 mg/m2, AUC0-t",74.1 ng·h/mL
same,Cmax,"clinical; 40 mg/m2, Cmax",52.5 ng/mL
same,Tmax,"clinical; 40 mg/m2, Tmax",26.7 min
same,half-life,"clinical; 40 mg/m2, t1/2",157 min
same,AUC0-t,"clinical; 50 mg/m2, AUC0-t",101 ng·h/mL
same,Cmax,"clinical; 50 mg/m2, Cmax",65.7 ng/mL
same,Tmax,"clinical; 50 mg/m2, Tmax",23.4 min
same,half-life,"clinical; 50 mg/m2, t1/2",153 min
same,AUC0-t,"clinical; 60 mg/m2, AUC0-t",107 ng·h/mL
same,Cmax,"clinical; 60 mg/m2, Cmax",87.4 ng/mL
same,Tmax,"clinical; 60 mg/m2, Tmax",27 min
same,half-life,"clinical; 60 mg/m2, t1/2",153 min
same,Tmax,"clinical; 60 mg/m2, tmax",28.2 ± 8.4 min
same,half-life,clinical; T1/2,> 150 min
same,Tmax,clinical; Tmax,< 60 min
"CC[C@@]1(OC(=O)[C@@H](C)O)C(=O)OCc2c1cc1n(c2=O)Cc2cc3c(CN(C)C)c(O)ccc3nc2-1 [TLC-U1, S,R-topotecan lactate]",topoisomerase I inhibition,topoisomerase I,weak topoisomerase I Inhibitors
same,Cmax and AUCo-t of TLC-U1 relative to TLC-U2,[2],3-4 times
same,Cmax and AUCo-t of TLC-U1 relative to topotecan,[2],approximately 2 times
same,Dose-normalized AUClast,[2],14.49 ± 4.46 nM*h/(mg/m^2)
same,Dose-normalized Cmax,[2],10.15 ± 3.87 nM/(mg/m^2)
same,difference between PK profiles on Day 1 and Day 8,[2],no significant difference
same,dose proportionality of exposure,[2],roughly dose proportional
same,AUC0-t,[2]; 1.5 mg/m2,10.869 (1.365) hr · ng/mL
same,Cmax,[2]; 1.5 mg/m2,6.897 (1.325) ng/mL
same,Tmax,[2]; 1.5 mg/m2,0.483 (0.000) hr
same,t1/2,[2]; 1.5 mg/m2,2.687 (0.329) hr
same,AUC0-t,[2]; 3 mg/m2,16.705 (4.893) hr · ng/mL
same,AUC0-t,[2]; 6 mg/m2,46.533 (10.74) hr · ng/mL
same,AUC0-t,[2]; 9 mg/m2,54.481 (10.70) hr · ng/mL
same,AUC0-t,[2]; 20 mg/m2,101.46 (37.00) hr · ng/mL
same,AUC0-t,[2]; 30 mg/m2,190.59 (33.45) hr · ng/mL
same,AUC0-t,[2]; 35 mg/m2,406.54 (77.86) hr · ng/mL
same,Cmax,[2]; 35 mg/m2,327.75 (216.8) ng/mL
same,Tmax,[2]; 35 mg/m2,0.546 (0.087) hr
same,t1/2,[2]; 35 mg/m2,4.064 (1.658) hr
same,AUC0-t,[2]; 40 mg/m2,285.94 (207.9) hr · ng/mL
same,AUC0-t,[2]; 50 mg/m2,349.27 (131.8) hr · ng/mL
same,AUC0-t,[2]; 60 mg/m2,417.98 (54.75) hr · ng/mL
same,time at which peak plasma concentrations (Cmax) were achieved,[2],within one hour
same,time of rapid rise of the metabolites in the serum after starting the infusion,[2],≤ 15 min
same,AUC0-t,"clinical; 1.5 mg/m2, AUC0-t",13 ng·h/mL
same,Cmax,"clinical; 1.5 mg/m2, Cmax",11.2 ng/mL
same,Tmax,"clinical; 1.5 mg/m2, Tmax",37.7 min
same,half-life,"clinical; 1.5 mg/m2, t1/2",168 min
same,AUC0-t,"clinical; 3 mg/m2, AUC0-t",24.6 ng·h/mL
same,Cmax,"clinical; 3 mg/m2, Cmax",17.1 ng/mL
same,Tmax,"clinical; 3 mg/m2, Tmax",28 min
same,half-life,"clinical; 3 mg/m2, t1/2",159 min
same,AUC0-t,"clinical; 6 mg/m2, AUC0-t",44.3 ng·h/mL
same,Cmax,"clinical; 6 mg/m2, Cmax",28.5 ng/mL
same,Tmax,"clinical; 6 mg/m2, Tmax",28 min
same,half-life,"clinical; 6 mg/m2, t1/2",174 min
same,AUC0-t,"clinical; 9 mg/m2, AUC0-t",48.6 ng·h/mL
same,Cmax,"clinical; 9 mg/m2, Cmax",37.8 ng/mL
same,Tmax,"clinical; 9 mg/m2, Tmax",33.8 min
same,half-life,"clinical; 9 mg/m2, t1/2",221 min
same,AUC0-t,clinical; 13.5 mg/m2,99.1 ng·h/mL
same,Cmax,clinical; 13.5 mg/m2,56.3 ng/mL
same,Tmax,clinical; 13.5 mg/m2,18.5 min
same,half-life,clinical; 13.5 mg/m2,171 min
same,AUC0-t,"clinical; 20 mg/m2, AUC0-t",112 ng·h/mL
same,Cmax,"clinical; 20 mg/m2, Cmax",87.4 ng/mL
same,Tmax,"clinical; 20 mg/m2, Tmax",24.3 min
same,half-life,"clinical; 20 mg/m2, t1/2",177 min
same,AUC0-t,"clinical; 30 mg/m2, AUC0-t",163 ng·h/mL
same,Cmax,"clinical; 30 mg/m2, Cmax",105 ng/mL
same,Tmax,"clinical; 30 mg/m2, Tmax",27.2 min
same,half-life,"clinical; 30 mg/m2, t1/2",160 min
same,AUC0-t,"clinical; 35 mg/m2, AUC0-t",340 ng·h/mL
same,Cmax,"clinical; 35 mg/m2, Cmax",196 ng/mL
same,Tmax,"clinical; 35 mg/m2, Tmax",38.3 min
same,half-life,"clinical; 35 mg/m2, t1/2",320 min
same,AUC0-t,"clinical; 40 mg/m2, AUC0-t",283 ng·h/mL
same,Tmax,"clinical; 40 mg/m2, Tmax",23.5 min
same,half-life,"clinical; 40 mg/m2, t1/2",177 min
same,AUC0-t,"clinical; 50 mg/m2, AUC0-t",365 ng·h/mL
same,Cmax,"clinical; 50 mg/m2, Cmax",242 ng/mL
same,Tmax,"clinical; 50 mg/m2, Tmax",26.2 min
same,half-life,"clinical; 50 mg/m2, t1/2",174 min
same,AUC0-t,"clinical; 60 mg/m2, AUC0-t",421 ng·h/mL
same,Cmax,"clinical; 60 mg/m2, Cmax",347 ng/mL
same,Tmax,"clinical; 60 mg/m2, Tmax",21.4 min
same,half-life,"clinical; 60 mg/m2, t1/2",174 min
same,Tmax,"clinical; 60 mg/m2, tmax",27 ± 10.2 min
same,half-life,clinical; T1/2,> 150 min
same,Tmax,clinical; Tmax,< 60 min
